{"source": "patent US7700782B2", "about": "“Compounds 569” (AstraZeneca AB, priority 2007, dated 2010)", "note": "Counter-ions that a name gives are not always drawn.", "data": [{"biological_target": "T1, Adrenergic β2 (Homo sapiens, UniProt P07550)", "T1 construct": "Adherent H292 cells were removed from tissue culture flasks; endogenous in cells; host or cells: H292 cells", "T1 sequence (P07550 whole entry)": "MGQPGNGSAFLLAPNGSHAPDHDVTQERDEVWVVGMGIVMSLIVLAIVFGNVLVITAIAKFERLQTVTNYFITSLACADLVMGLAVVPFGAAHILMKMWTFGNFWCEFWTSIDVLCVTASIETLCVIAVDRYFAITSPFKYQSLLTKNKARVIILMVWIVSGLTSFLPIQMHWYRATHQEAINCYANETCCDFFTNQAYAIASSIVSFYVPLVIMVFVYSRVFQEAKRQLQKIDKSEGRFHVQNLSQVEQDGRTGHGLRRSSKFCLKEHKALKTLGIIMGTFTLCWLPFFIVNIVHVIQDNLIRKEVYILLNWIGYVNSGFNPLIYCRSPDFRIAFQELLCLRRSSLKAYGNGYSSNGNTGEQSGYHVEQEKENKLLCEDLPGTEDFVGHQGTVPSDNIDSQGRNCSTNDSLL", "assay": "Adrenergic β2 mediated cAMP production in H292 cells (AlphaScreen cAMP detection)", "type": "cell-based", "details": "Intrinsic Activity, fraction relative to the maximum activity determined for formoterol", "experimental": "Adrenergic β2 Mediated cAMP Production\nH292 cells were grown in 225 cm2 flasks incubator at 37° C., 5% CO2 in RPMI medium containing, 10% (v/v) FBS (foetal bovine serum) and 2 mM L-glutamine.\nAdherent H292 cells were removed from tissue culture flasks by treatment with Accutase™ cell detachment solution for 15 minutes. Flasks were incubated for 15 minutes in a humidified incubator at 37° C., 5% CO2. Detached cells were re-suspended in RPMI media (containing 10% (v/v) FBS and 2 mM L-glutamine) at 0.05×10^6 cells per mL. 5000 cells in 100 μL were added to each well of a tissue-culture-treated 96-well plate and the cells incubated overnight in a humidified incubator at 37° C., 5% CO2. The culture media was removed and cells were washed twice with 100 μL assay buffer and replaced with 50 μL assay buffer (HBSS solution containing 10 mM HEPES pH 7.4 and 5 mM glucose). Cells were rested at room temperature for 20 minutes after which time 25 μL of rolipram (1.2 mM made up in assay buffer containing 2.4% (v/v) dimethylsulphoxide) was added. Cells were incubated with rolipram for 10 minutes after which time test compounds were added and the cells were incubated for 60 minutes at room temperature. The final rolipram concentration in the assay was 300 μM and final vehicle concentration was 1.6% (v/v) dimethylsulphoxide. The reaction was stopped by removing supernatants, washing once with 100 μL assay buffer and replacing with 50 μL lysis buffer. The cell monolayer was frozen at −80° C. for 30 minutes (or overnight).\nThe concentration of cAMP (cyclic adenosine monophosphate) in the cell lysate was determined using AlphaScreen™ methodology. The frozen cell plate was thawed for 20 minutes on a plate shaker then 10 μL of the cell lysate was transferred to a 96-well white plate. 40 μL of mixed AlphaScreen™ detection beads pre-incubated with biotinylated cAMP, was added to each well and the plate incubated at room temperature for 10 hours in the dark. The AlphaScreen™ signal was measured using an EnVision spectrophotometer (Perkin-Elmer Inc.) with the recommended manufacturer's settings. cAMP concentrations were determined by reference to a calibration curve determined in the same experiment using standard cAMP concentrations. Concentration response curves for agonists were constructed and data was fitted to a four parameter logistic equation to determine both the pEC50 and Intrinsic Activity. Intrinsic Activity was expressed as a fraction relative to the maximum activity determined for formoterol in each experiment.", "values": [{"compound": "COc1cccc(CCNCCC(=O)N(CCNCCc2ccc(O)c3[nH]c(=O)sc23)CC(C)(C)C)c1", "note": "[Example 43, N^1-(2,2-Dimethylpropyl)-N^1-(2-{[2-(4-hydroxy-2-oxo-2,3-dihydro-1,3-benzothiazol-7-yl)ethyl]amino}ethyl)-N^3-[2-(3-methoxyphenyl)ethyl]-β-alaninamide bis-trifluoroacetic acid salt]", "β2 Int Act": 0.67}, {"compound": "CC(C)(C)CN(CCNCCc1ccc(O)c2[nH]c(=O)sc12)C(=O)CCNCCc1cccc(F)c1", "note": "[Example 44, N^1-(2,2-Dimethylpropyl)-N^3-[2-(3-fluorophenyl)ethyl]-N^1-(2-{[2-(4-hydroxy-2-oxo-2,3-dihydro-1,3-benzothiazol-7-yl)ethyl]amino}ethyl)-β-alaninamide bis-trifluoroacetic acid salt]", "β2 Int Act": 0.73}, {"compound": "CC(C)(CN(CCNCCc1ccc(O)c2[nH]c(=O)sc12)C(=O)CCNCCc1ccccc1)c1ccccc1", "note": "[Example 45, N^1-(2-{[2-(4-Hydroxy-2-oxo-2,3-dihydro-1,3-benzothiazol-7-yl)ethyl]amino}ethyl)-N^1-(2-methyl-2-phenylpropyl)-N^3-(2-phenylethyl)-β-alaninamide bis-trifluoroacetic acid salt]", "β2 Int Act": 0.55}, {"compound": "O=C(CCNCCc1ccccc1Cl)N(CCNCCc1ccc(O)c2[nH]c(=O)sc12)C1CCC(F)(F)CC1", "note": "[Example 46, N^3-[2-(2-Chlorophenyl)ethyl]-N^1-(4,4-difluorocyclohexyl)-N^1-(2-{[2-(4-hydroxy-2-oxo-2,3-dihydro-1,3-benzothiazol-7-yl)ethyl]amino}ethyl)-β-alaninamide bis-trifluoroacetic acid salt]", "β2 Int Act": 0.78}, {"compound": "O=C(CCNCCc1cccc(Cl)c1)N(CCNCCc1ccc(O)c2[nH]c(=O)sc12)C1CCC(F)(F)CC1", "note": "[Example 47, N^3-[2-(3-Chlorophenyl)ethyl]-N^1-(4,4-difluorocyclohexyl)-N^1-(2-{[2-(4-hydroxy-2-oxo-2,3-dihydro-1,3-benzothiazol-7-yl)ethyl]amino}ethyl)-β-alaninamide bis-trifluoroacetic acid salt]", "β2 Int Act": 0.73}, {"compound": "O=C(CCNCCc1ccc(Cl)cc1)N(CCNCCc1ccc(O)c2[nH]c(=O)sc12)C1CCC(F)(F)CC1", "note": "[Example 48, N^3-[2-(4-Chlorophenyl)ethyl]-N^1-(4,4-difluorocyclohexyl)-N^1-(2-{[2-(4-hydroxy-2-oxo-2,3-dihydro-1,3-benzothiazol-7-yl)ethyl]amino}ethyl)-β-alaninamide bis-trifluoroacetic acid salt]", "β2 Int Act": 0.55}, {"compound": "O=C(CCNCCc1ccc(Cl)c(Cl)c1)N(CCNCCc1ccc(O)c2[nH]c(=O)sc12)C1CCC(F)(F)CC1", "note": "[Example 49, N^3-[2-(3,4-Dichlorophenyl)ethyl]-N^1-(4,4-difluorocyclohexyl)-N^1-(2-{[2-(4-hydroxy-2-oxo-2,3-dihydro-1,3-benzothiazol-7-yl)ethyl]amino}ethyl)-β-alaninamide bis-trifluoroacetic acid salt]", "β2 Int Act": 0.59}, {"compound": "O=C(CCNCCc1cccc(Cl)c1)N(CCNCCc1ccc(O)c2[nH]c(=O)sc12)C1CCCCCC1", "note": "[Example 50, N^3-[2-(3-Chlorophenyl)ethyl]-N^1-cycloheptyl-N^1-(2-{[2-(4-hydroxy-2-oxo-2,3-dihydro-1,3-benzothiazol-7-yl)ethyl]amino}ethyl)-β-alaninamide bis-trifluoroacetic acid salt]", "β2 Int Act": 0.91}, {"compound": "O=C(CCNCCc1ccc(Cl)cc1)N(CCNCCc1ccc(O)c2[nH]c(=O)sc12)C1CCCCCC1", "note": "[Example 51, N^3-[2-(4-Chlorophenyl)ethyl]-N^1-cycloheptyl-N^1-(2-{[2-(4-hydroxy-2-oxo-2,3-dihydro-1,3-benzothiazol-7-yl)ethyl]amino}ethyl)-β-alaninamide bis-trifluoroacetic acid salt]", "β2 Int Act": 0.59}, {"compound": "O=C(CCNCCc1cccs1)N(CCNCCc1ccc(O)c2[nH]c(=O)sc12)C1CCCCCC1", "note": "[Example 52, N^1-Cycloheptyl-N^1-(2-{[2-(4-hydroxy-2-oxo-2,3-dihydro-1,3-benzothiazol-7-yl)ethyl]amino}ethyl)-N^3-[2-(2-thienyl)ethyl]-β-alaninamide bis-trifluoroacetic acid salt]", "β2 Int Act": 0.92}, {"compound": "O=C(CCNCCc1ccc(F)c(F)c1)N(CCNCCc1ccc(O)c2[nH]c(=O)sc12)C1CCCCCC1", "note": "[Example 53, N^1-Cycloheptyl-N^3-[2-(3,4-difluorophenyl)ethyl]-N^1-(2-{[2-(4-hydroxy-2-oxo-2,3-dihydro-1,3-benzothiazol-7-yl)ethyl]amino}ethyl)-β-alaninamide bis-trifluoroacetic acid salt]", "β2 Int Act": 0.74}, {"compound": "O=C(CCNCCc1cccc(OC(F)F)c1)N(CCNCCc1ccc(O)c2[nH]c(=O)sc12)C1CCCCCC1", "note": "[Example 54, N^1-Cycloheptyl-N^3-{2-[3-(difluoromethoxy)phenyl]ethyl}-N^1-(2-{[2-(4-hydroxy-2-oxo-2,3-dihydro-1,3-benzothiazol-7-yl)ethyl]amino}ethyl)-β-alaninamide bis-trifluoroacetic acid salt]", "β2 Int Act": 0.69}, {"compound": "O=C(CCNCCc1ccc(F)cc1F)N(CCNCCc1ccc(O)c2[nH]c(=O)sc12)C1CCCCCC1", "note": "[Example 55, N^1-Cycloheptyl-N^3-[2-(2,4-difluorophenyl)ethyl]-N^1-(2-{[2-(4-hydroxy-2-oxo-2,3-dihydro-1,3-benzothiazol-7-yl)ethyl]amino}ethyl)-β-alaninamide bis-trifluoroacetic acid salt]", "β2 Int Act": 0.81}, {"compound": "O=C(CCNCCc1cccc(F)c1F)N(CCNCCc1ccc(O)c2[nH]c(=O)sc12)C1CCCCCC1", "note": "[Example 56, N^1-Cycloheptyl-N^3-[2-(2,3-difluorophenyl)ethyl]-N^1-(2-{[2-(4-hydroxy-2-oxo-2,3-dihydro-1,3-benzothiazol-7-yl)ethyl]amino}ethyl)-β-alaninamide bis-trifluoroacetic acid salt]", "β2 Int Act": 0.86}, {"compound": "O=C(CCNCCc1ccc(F)cc1Cl)N(CCNCCc1ccc(O)c2[nH]c(=O)sc12)C1CCCCCC1", "note": "[Example 57, N^3-[2-(2-Chloro-4-fluorophenyl)ethyl]-N^1-cycloheptyl-N^1-(2-{[2-(4-hydroxy-2-oxo-2,3-dihydro-1,3-benzothiazol-7-yl)ethyl]amino}ethyl)-β-alaninamide bis-trifluoroacetic acid salt]", "β2 Int Act": 0.72}, {"compound": "O=C(CCNCCc1cc(F)cc(F)c1)N(CCNCCc1ccc(O)c2[nH]c(=O)sc12)C1CCCCCC1", "note": "[Example 58, N^1-Cycloheptyl-N^3-[2-(3,5-difluorophenyl)ethyl]-N^1-(2-{[2-(4-hydroxy-2-oxo-2,3-dihydro-1,3-benzothiazol-7-yl)ethyl]amino}ethyl)-β-alaninamide bis-trifluoroacetic acid salt]", "β2 Int Act": 0.84}, {"compound": "O=C(CCNCCc1ccccc1)N(CCNCCc1ccc(O)c2[nH]c(=O)sc12)CC12CC3CC(CC(C3)C1)C2", "note": "[Example 59, N^1-(1-Adamantylmethyl)-N^1-(2-{[2-(4-hydroxy-2-oxo-2,3-dihydro-1,3-benzothiazol-7-yl)ethyl]amino}ethyl)-N^3-(2-phenylethyl)-β-alaninamide bis-trifluoroacetic acid salt]", "β2 Int Act": 0.85}, {"compound": "O=C(CCNCCc1cccc(F)c1)N(CCNCCc1ccc(O)c2[nH]c(=O)sc12)CC12CC3CC(CC(C3)C1)C2", "note": "[Example 60, N^1-(1-Adamantylmethyl)-N^3-[2-(3-fluorophenyl)ethyl]-N^1-(2-{[2-(4-hydroxy-2-oxo-2,3-dihydro-1,3-benzothiazol-7-yl)ethyl]amino}ethyl)-β-alaninamide bis-trifluoroacetic acid salt]", "β2 Int Act": 0.76}, {"compound": "O=C(CCNCCc1ccc(F)cc1)N(CCNCCc1ccc(O)c2[nH]c(=O)sc12)CC12CC3CC(CC(C3)C1)C2", "note": "[Example 61, N^1-(1-Adamantylmethyl)-N^3-[2-(4-fluorophenyl)ethyl]-N^1-(2-{[2-(4-hydroxy-2-oxo-2,3-dihydro-1,3-benzothiazol-7-yl)ethyl]amino}ethyl)-β-alaninamide bis-trifluoroacetic acid salt]", "β2 Int Act": 0.79}, {"compound": "O=C(CCNCCc1ccccc1)N(CCNCCc1ccc(O)c2[nH]c(=O)sc12)C1CCSCC1", "note": "[Example 62, N^1-(2-{[2-(4-Hydroxy-2-oxo-2,3-dihydro-1,3-benzothiazol-7-yl)ethyl]amino}ethyl)-N^3-(2-phenylethyl)-N^1-(tetrahydro-2H-thiopyran-4-yl)-β-alaninamide bis-trifluoroacetic acid salt]", "β2 Int Act": 0.87}]}]}
